Test results published in ChEMBL document CHEMBL1201862, “PubChem BioAssay data set” (2004).
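Interpolation was linear, between the two tested concentrations surrounding the appropriate level; five concentrations were tested over 48 hours in 96-well plates. GI50 is the concentration that inhibits growth by half.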 Calls of active or inactive are those of the source. Rule as the data show it: active = GI50 up to about 1.1 µM and inactive = higher.

Key:
Test in all cases: NCI-60 cell line screen, 48 h
NCI-H460 = test system: NCI-H460
EKVX = test system: EKVX
HOP-62 = test system: HOP-62
BT-549 = test system: BT-549
M14 = test system: M14
A498 = test system: A498
MDA-MB-231 = test system: MDA-MB-231
SF-295 = test system: SF-295
SF-268 = test system: SF-268
A549 = test system: A549
CCRF-CEM = test system: CCRF-CEM
MDA-N = test system: MDA-N
RXF 393 = test system: RXF 393
PC-3 = test system: PC-3
HL-60 = test system: HL-60
SK-MEL-5 = test system: SK-MEL-5
RPMI-8226 = test system: RPMI-8226
SK-MEL-28 = test system: SK-MEL-28
T47D = test system: T47D

SMILES	GI50 (NCI-H460)	GI50 (EKVX)	GI50 (HOP-62)	GI50 (BT-549)	GI50 (M14)	GI50 (A498)	GI50 (MDA-MB-231)	GI50 (SF-295)	GI50 (SF-268)	GI50 (A549)	GI50 (CCRF-CEM)	GI50 (MDA-N)	GI50 (RXF 393)	GI50 (PC-3)	GI50 (HL-60)	GI50 (SK-MEL-5)	GI50 (RPMI-8226)	GI50 (SK-MEL-28)	GI50 (T47D)
CCN(CC)CCN1C(=O)c2c(c(-c3ccccc3)c3ccccc3c2-c2ccccc2)C1=O	> 100 µM (inactive)	> 100 µM (inactive)	71.1 µM (inactive)	> 100 µM (inactive)	> 100 µM (inactive)	> 100 µM (inactive)	> 100 µM (inactive)	71.6 µM (inactive)	> 100 µM (inactive)	> 100 µM (inactive)	> 100 µM (inactive)	> 100 µM (inactive)	25.8 µM (inactive)	> 100 µM (inactive)	> 100 µM (inactive)	> 100 µM (inactive)	> 100 µM (inactive)	–	–
O=c1[nH]c2nc3ccccc3c(=O)n2/c1=C/c1cccs1	–	> 100 µM (inactive)	> 100 µM (inactive)	> 100 µM (inactive)	> 100 µM (inactive)	–	> 100 µM (inactive)	> 100 µM (inactive)	> 100 µM (inactive)	> 100 µM (inactive)	> 100 µM (inactive)	> 100 µM (inactive)	> 100 µM (inactive)	> 100 µM (inactive)	> 100 µM (inactive)	> 100 µM (inactive)	> 100 µM (inactive)	> 100 µM (inactive)	69.7 µM (inactive)
CC(C)COP(=O)(OCC(C)C)C(NS(=O)(=O)c1ccccc1)(C(F)(F)F)C(F)(F)F	–	4.91 µM (inactive)	11.3 µM (inactive)	4.03 µM (inactive)	12.8 µM (inactive)	–	2.04 µM (inactive)	5.6 µM (inactive)	7.21 µM (inactive)	3.82 µM (inactive)	3.36 µM (inactive)	5.51 µM (inactive)	3.96 µM (inactive)	3.68 µM (inactive)	1.22 µM (inactive)	5.12 µM (inactive)	1.66 µM (inactive)	13.6 µM (inactive)	3.38 µM (inactive)
COc1ccc(C(=O)/C=C/c2ccc(OCC#N)cc2)cc1	27.3 µM (inactive)	74.5 µM (inactive)	53.1 µM (inactive)	17.5 µM (inactive)	20 µM (inactive)	30.6 µM (inactive)	23.4 µM (inactive)	41 µM (inactive)	34.1 µM (inactive)	28.5 µM (inactive)	23.2 µM (inactive)	> 10 µM (inactive)	16.3 µM (inactive)	36.6 µM (inactive)	–	15.1 µM (inactive)	–	17.1 µM (inactive)	14.9 µM (inactive)
CCC(C)C(C(=O)N/N=C1/SCC(=O)N1c1ccccc1)C(=O)N/N=C1/SCC(=O)N1c1ccccc1 (stereo unspecified)	> 100 µM (inactive)	> 100 µM (inactive)	79.3 µM (inactive)	> 100 µM (inactive)	47.1 µM (inactive)	–	28.8 µM (inactive)	> 100 µM (inactive)	44.9 µM (inactive)	> 100 µM (inactive)	46.1 µM (inactive)	27.2 µM (inactive)	16.4 µM (inactive)	> 100 µM (inactive)	> 100 µM (inactive)	22 µM (inactive)	–	16.9 µM (inactive)	> 100 µM (inactive)
O=C(O)Cc1c(-c2ccc([N+](=O)[O-])cc2)c(=O)oc2cc(O)ccc12	28.9 µM (inactive)	15.1 µM (inactive)	–	23.8 µM (inactive)	32.1 µM (inactive)	22.4 µM (inactive)	29.4 µM (inactive)	16.1 µM (inactive)	34.8 µM (inactive)	37.3 µM (inactive)	22.5 µM (inactive)	30.4 µM (inactive)	30.3 µM (inactive)	28.1 µM (inactive)	17.7 µM (inactive)	18.1 µM (inactive)	19.9 µM (inactive)	38 µM (inactive)	–
COc1ccc(C[C@H]2COC(=O)[C@@H]2Cc2cc(OC)c(OC)c(OC)c2)cc1OC	> 100 µM (inactive)	> 65.8 µM (inactive)	> 100 µM (inactive)	32 µM (inactive)	90.4 µM (inactive)	–	> 87.3 µM (inactive)	> 100 µM (inactive)	> 100 µM (inactive)	> 100 µM (inactive)	48.2 µM (inactive)	78.7 µM (inactive)	> 54.5 µM (inactive)	42 µM (inactive)	–	26.2 µM (inactive)	17.1 µM (inactive)	98.2 µM (inactive)	17.9 µM (inactive)
CN(C)Cc1cc(C=O)cc(CN(C)C)c1O	> 100 µM (inactive)	> 100 µM (inactive)	> 100 µM (inactive)	> 100 µM (inactive)	–	> 100 µM (inactive)	> 100 µM (inactive)	> 100 µM (inactive)	> 100 µM (inactive)	> 100 µM (inactive)	> 100 µM (inactive)	> 100 µM (inactive)	> 100 µM (inactive)	> 100 µM (inactive)	> 100 µM (inactive)	> 100 µM (inactive)	> 100 µM (inactive)	> 100 µM (inactive)	–
CCOP(=O)(OCC)OC1CC(n2cnc3c(N(CC)CC)ncnc32)OC1CO[Si](C)(C)C(C)(C)C (stereo unspecified)	15 µM (inactive)	5.86 µM (inactive)	19.7 µM (inactive)	16.1 µM (inactive)	18.8 µM (inactive)	–	–	16.7 µM (inactive)	15.3 µM (inactive)	15.7 µM (inactive)	14.4 µM (inactive)	18 µM (inactive)	16.9 µM (inactive)	12.2 µM (inactive)	65 µM (inactive)	17.3 µM (inactive)	28 µM (inactive)	18.5 µM (inactive)	12 µM (inactive)
O=C(c1ccccc1)C1C(C(=O)c2ccccc2)N1Cc1ccccc1 (stereo unspecified)	29.2 µM (inactive)	28.3 µM (inactive)	30.5 µM (inactive)	25.9 µM (inactive)	28.6 µM (inactive)	33 µM (inactive)	26.1 µM (inactive)	39.7 µM (inactive)	37.1 µM (inactive)	24.2 µM (inactive)	36.6 µM (inactive)	13.5 µM (inactive)	–	23.4 µM (inactive)	–	20 µM (inactive)	48.9 µM (inactive)	32.7 µM (inactive)	11.6 µM (inactive)
O=C(O)CN(CCNC(=O)OCC1c2ccccc2-c2ccccc21)CCNC(=O)OCC1c2ccccc2-c2ccccc21	19.2 µM (inactive)	23.7 µM (inactive)	21.3 µM (inactive)	27.2 µM (inactive)	28.8 µM (inactive)	–	17.4 µM (inactive)	25 µM (inactive)	19 µM (inactive)	23.3 µM (inactive)	24.5 µM (inactive)	20 µM (inactive)	36.1 µM (inactive)	24 µM (inactive)	24.6 µM (inactive)	19.6 µM (inactive)	25.4 µM (inactive)	25 µM (inactive)	20.1 µM (inactive)
Cc1ccnc2nc(-c3cccc4ccccc34)cc(O)c12	0.0121 µM (active)	0.0272 µM (active)	0.537 µM (active)	14.1 µM (inactive)	0.00938 µM (active)	0.00167 µM (active)	0.149 µM (active)	0.0132 µM (active)	0.00867 µM (active)	0.019 µM (active)	0.00527 µM (active)	0.000104 µM (active)	0.0879 µM (active)	0.0113 µM (active)	0.000487 µM (active)	0.000991 µM (active)	0.00682 µM (active)	0.00395 µM (active)	–
